Measurements from patent US7361633B2, “Screening method and anti-tumor drug candidate obtained therefrom” (Ardana Bioscience Limited, priority 2002, dated 2008).
Entries after “also recorded” stand apart in the source; their conditions may differ.

What was measured:
Type II GnRHR = target: T1, Type II GnRHR (Callithrix jacchus, UniProt Q95MG6); assay: Binding affinity for Type II GnRHR (data not shown)
T1 sequence (Q95MG6 1-380): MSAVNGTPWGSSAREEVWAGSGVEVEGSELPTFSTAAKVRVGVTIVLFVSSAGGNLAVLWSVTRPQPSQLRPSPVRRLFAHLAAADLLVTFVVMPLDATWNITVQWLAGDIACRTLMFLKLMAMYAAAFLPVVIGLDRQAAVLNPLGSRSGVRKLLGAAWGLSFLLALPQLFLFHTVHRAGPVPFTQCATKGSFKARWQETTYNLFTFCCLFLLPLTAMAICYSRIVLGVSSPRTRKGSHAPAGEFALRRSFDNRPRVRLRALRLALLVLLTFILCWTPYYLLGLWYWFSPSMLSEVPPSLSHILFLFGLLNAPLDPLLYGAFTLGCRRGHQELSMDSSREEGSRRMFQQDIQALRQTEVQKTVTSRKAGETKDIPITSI

Gαi-type G protein = assay: Inhibition of forskolin-stimulated cAMP accumulation in JEG-3 cells; format: cell-based, human; settings: for FSK-stimulated intracellular cAMP accumulation after ligand pre-exposure: 100 nM, pre-exposure 10, 30, 60 minutes; for effect of PTX on ligand-mediated inhibition of FSK-stimulated cAMP accumulation: 60 minute pre-exposure, PTX 200 ng/ml 16 h
From the text: In both BPH-1 and JEG-3 cells GnRH and Ant 135-25 can antagonize forskolin (FSK) stimulated intracellular cAMP accumulation. Panels a and b respectively depict the effects of FSK, GnRH I and Ant 135-25 upon intracellular levels of cAMP in BPH-1 and JEG-3 cells measured using a calorimetric Biomol cAMP assay kit. […] Each histogram in panels a to d depicts the mean±s.e. mean of three to four experimental replicates of the cAMP accumulation assay.
Thus we noted that when cyclic adenosine monophosphate levels (cAMP) were measured using a commercially available […] assay system (Biomol) the ability of forskolin (1 μM in JEG-3 and 3 μM in BPH-1, sufficient to give a 50% Rmax response in each case) was blunted with extended cellular pre-treatment times (10 to 60 minutes) with either 100 nM GnRH I or Ant 135-25 (FIG. 9, panel a-BPH, panel b-JEG). […] Therefore it appears that both ligands can efficiently activate the adenylate cyclase inhibitory activity of Gαi in both cell models tested.

PLC-β = assay: Inositol phosphate accumulation in BPH-1 cells; format: cell-based, human; settings: for inositol phosphate accumulation: 60 minutes, 10 mM LiCl, doses up to 50 μM
Method: BPH-1 cells were pre-incubated with ^3H-myoinositol (1 μCi/ml) for 48 h prior to ligand stimulation (60 minutes). Ligand stimulated inositol phosphate production was measured in the presence of 10 mM LiCl. […] IP accumulation can be used as a read out/marker for Gαq activation since the activation of PLCβ is PTX-resistant.

Type I GnRHR = assay: Binding affinity for Type I GnRHR (data not shown)
[1] = test system: caspase 3 and procaspase 3; assay: Caspase 3 / procaspase 3 immunoblot of BPH-1 whole cell lysates; format: cell-based, human; settings: BPH-1 cells, continuous stimulation, time course
Method: (§1) All twelve panels depict either phase contrast (1, 4, 7, 10), confocal laser microscope (2, 5, 8, 11) or phase contrast/confocal merged images (3, 6, 9, 12). Panels 1 to 3 depict untreated control JEG-3 cells for cells in panels 4 to 6 which have been treated with GnRH I (100 nM) for 24 h. All cells have been exposed while live to an annexin V recombinant protein conjugated to the FITC fluorophore. The annexin V will bind specifically only to phosphatidlyserine (PS) lipids usually only expressed on the intracellular side of the plasma membrane lipid bilayer. An early sign of apoptosis is the translocation of these PS lipids from the intracellular side of the membrane to the outer aspect of the bilayer. […] The cellular levels of caspase 3 and procaspase 3 were assessed by specific immunoblotting of JEG-3 or BPH-1 whole cell (w-c) lysates from cells stimulated continuously with GnRH I for the times depicted.
(§2) Thus we have shown that upon continuous GnRH ligand stimulation of either JEG-3 or BPH-1 there is a retardation of cell growth, however we were interested as to whether there was any genuine induction of cellular apoptosis recently reported to occur in several tumour cell lines (Soon et al (2002) J. Clin. Endocrinol. Metab. 87, 4580-4586). […] Initially we measured the effects of GnRH stimulation upon the ultrastructural integrity of the cells plasma membrane. […]

[2] = test system: caspase 3 and procaspase 3; assay: Caspase 3 / procaspase 3 immunoblot of JEG-3 whole cell lysates; format: cell-based, human; settings: JEG-3 cells, 100 nM continuously, time course
Method: as §1, §2

[3] = test system: Type II GnRHRs cloned from several species; settings: Ott et al (2002); cited from earlier work

Substance | binding affinity for Type II GnRHR (Type II GnRHR) | FSK-stimulated intracellular cAMP accumulation after ligand pre-exposure (Gαi-type G protein) | effect of PTX on ligand-mediated inhibition of FSK-stimulated cAMP accumulation (Gαi-type G protein) | inositol phosphate accumulation (PLC-β) | binding affinity for Type I GnRHR (Type I GnRHR) | cellular levels of pro-caspase 3 and cleaved caspase-3 [1] | cellular level of cleaved (active) caspase-3 [2] | cellular level of pro-caspase 3 [2] | effect of pertussis toxin pre-incubation on induced inositol phosphate accumulation (PLC-β; PTX 200 ng/ml 16 h, GnRH I 50 μM) | partial agonistic activity upon Type II GnRHRs cloned from several species [3]
Ac-D-Nal(2)-D-4-ClPhe-D-Pal-Ser-1-MePal-D-IsopropylLys-Leu-IsopropylLys-Pro-D-AlaNH2 [Ant 135-25] | high binding affinity | significantly reduced; also recorded: blunted | can be specifically inhibited with a 16 h pre-incubation of the cells with 200 ng/ml of PTX; also recorded: attenuated by a 16 h pre-treatment with 200 ng/ml PTX | only high doses of GnRH I and Ant 135-25 cause any significant accumulation of inositol phosphates; also recorded: small capacity to induce inositol phosphate accumulation | high binding affinity |  |  |  |  | 
GnRH I: Gonadotropin-Releasing Hormone, a decapeptide; the original form of GnRH, re-named GnRH I |  | significantly reduced; also recorded: blunted | can be specifically inhibited with a 16 h pre-incubation of the cells with 200 ng/ml of PTX; also recorded: attenuated by a 16 h pre-treatment with 200 ng/ml PTX | only high doses of GnRH I and Ant 135-25 cause any significant accumulation of inositol phosphates; also recorded: small capacity to induce inositol phosphate accumulation |  | enhanced expression of the pro-apoptotic proteases cleaved-caspase 3 and procaspase 3; also recorded: more rapid onset on the generation of cleaved caspase-3 | enhanced expression of the pro-apoptotic proteases cleaved-caspase 3 and procaspase 3; also recorded: only significantly evident between 48-72 h | enhanced expression of the pro-apoptotic proteases cleaved-caspase 3 and procaspase 3; also recorded: significant elevation in the cellular levels of pro-caspase 3 evident from 24-48 h | abrogated by a 16 h pre-incubation of the BPH-1 cells with 200 ng/ml of pertussis toxin | 
Ac-D-Nal(2)-D-4-ClPhe-D-Pal-Ser-Ile-D-IsopropylLys-Leu-IsopropylLys-Pro-D -AlaNH2 [Ant 135-18] |  |  |  |  |  |  |  |  |  | high degree of partial agonistic activity
